Data published in patent US12516038B2, “Inhibitors of antigen presentation by HLA-DR” (Janssen Pharmaceutica NV, priority 2020, dated 2026).

Experiments:
[1] = target: HLA-DRB1*0401 (Homo sapiens (Human), UniProt P01903+P01911, A100K/A169T/DEL228-266/F76Y/I96L/K127E/L162R/M171V/N62H/P40V/Q125Y/R42H/S133A/S149N/S66Y/V115G/V209L/W38E); assay: HLA-DR4 HTRF assay; type: binding; details: inhibition of loading of Alexa Fluor 647-labeled Cit-CII peptide onto HLA-DR4 (CLIP cleaved)
Method in brief: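 HLA-DRB1*04:01 construct (α/β fused to human Fc, CLIP pre-cleaved by HRV3C overnight at 4° C) at 3 nM was preincubated 45 min with compound and 1 nM anti-Fc-Tb donor, then 40 nM Alexa647-Cit-CII1236-1249 peptide added. After 90 min at 37° C, the 665/620 nm HTRF ratio gave % inhibition; IC50 by nonlinear regression.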

[2] = tested on: HLA-DR4 restricted mouse T cell hybridoma line (DR4.CII.36.8) with HLA-DRB1*04:01-expressing Boleth cells; assay: HLA-DR4-restricted peptide-specific T cell-based assay (hybridoma assay); details: 6 h, inhibition of IL-2 production, CII259-273 peptide presented by Boleth cells
Method in brief: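 IC50 values derive from 4-parameter logistic fits of IL-2 AlphaLISA signal over 8-point duplicate titrations. Compound and HLA-DRB1*04:01 Boleth APCs were preincubated 1 h, 37° C., before adding CII259-273-restricted DR4.CII.36.8 hybridoma cells with peptide for 6 h at 37° C., in DMEM/1% FCS.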

[3] = tested on: human peripheral blood CD4+ helper T cells; assay: Pan-CD4+ T cell activation (off-target assay); type: cell-based; details: anti-CD3/anti-CD28 stimulation, IL-2 production by ELISA
From the text: The counter-screening was made through an HLA-DR-independent assay (Pan-CD4+ T cell activation assay), i.e., TCR-stimulated pan-T cell activation assay, and consists of activating T cell directly with agonistic antibody targeting the T cell receptor. The lack of inhibition in the counter-screening assay reflects that the inhibition of T cell activation in the HLA-DR4 restricted peptide-specific T cell based assay with the small molecule inhibitors is due to impaired antigen presentation on HLA-DR to the T cell and not due to a direct inhibition of the T cell function by an off-target mechanism (i.e., independently of targeting HLA-DR).
Pan-CD4+ T Cell Activation
Compounds were tested using a pan-T cell activation assay. In this assay, anti-human CD3 antibody (BD Pharmingen #55336) pre-coated at 1 μg/mL to a 96-well assay plate and 1 μg/ml soluble anti-human CD28 (EBioscience #16-0289-85) antibody were used for activating human peripheral blood CD4+ helper T cells (no HLA-DR-expressing APC were present in this assay format), in the presence of compounds (or vehicle control) for 24 hrs. IL-2 production was measured in the culture supernatant by ELISA (Human IL-2 Duo Set ELISA #DY202 from R&D Systems).

SMILES	IC50 [1] [nM]	IC50 ([2]; Mus musculus, T-cell) [nM]	IC50 ([3]; Homo sapiens, T-cell, 24 h) [nM]	IC50 [2] [nM]	IC50 ([3]; 24 hrs) [nM]
Cc1c(O[C@@H](c2ccc(Cl)cc2)c2ccc(C(N)=O)cc2)ccc2c1OCCC2=O (single isomer, unassigned) [Example 57a, (*R)-4-((4-chlorophenyl)((8-methyl-4-oxochroman-7-yl)oxy)methyl)benzamide]	2300	4800	> 15000	–	–
Cc1c(O[C@H](c2ccncc2)c2ccc(C(N)=O)cc2)c(F)cc2c1OCCC2=O (single isomer, unassigned) [Example 58b, (*S)-4-(((6-fluoro-8-methyl-4-oxochroman-7-yl)oxy)(pyridin-4-yl)methyl)benzamide]	730	2600	9900	–	–
COc1ccc(COc2ccc([C@@H](Oc3ccc4c(c3)OCCC4=O)c3ccncc3)cc2)cc1 (single isomer, unassigned) [Example 17a, (*R)-7-((4-((4-Methoxybenzyl)oxy)phenyl)(pyridin-4-yl)methoxy)chroman-4-one]	5800	4300	15000	–	–
N#Cc1ccc([C@@H](Oc2ccc3c(c2)OCCC3=O)c2ccncc2)c2ccccc12 (single isomer, unassigned) [Example 37b, (*S)-4-(((4-oxochroman-7-yl)oxy)(pyridin-4-yl)methyl)-1-naphthonitrile]	24000	5100	9900	–	–
Cc1c(O[C@@H](c2ccc(C(N)=O)cc2)c2ccc(C(=O)O)cc2)ccc2c1OCCC2=O (single isomer, unassigned) [Example 71b, (*S)-4-((4-carbamoylphenyl)((8-methyl-4-oxochroman-7-yl)oxy)methyl)benzoic acid]	930	200	> 15000	–	–
Cc1c(O[C@@H](c2ccc(C(N)=O)cc2)c2cccc(C#N)c2)ccc2c1OCCC2=O (single isomer, unassigned) [Example 60b, (*S)-4-((3-cyanophenyl)((8-methyl-4-oxochroman-7-yl)oxy)methyl)benzamide]	2000	2300	9900	–	–
Cc1cc([C@@H](Oc2ccc3c(c2C)OCCC3=O)c2ccc(C(N)=O)cc2)cc(C)n1 (single isomer, unassigned) [Example 111b, (*S)-4-((2,6-dimethylpyridin-4-yl)((8-methyl-4-oxochroman-7-yl)oxy)methyl)benzamide]	560	21	4800	–	–
CCOc1cc(C(N)=O)ccc1[C@H](Oc1ccc2c(c1C)OCCC2=O)c1ccncc1 (single isomer, unassigned) [Example 83a, (*R)-3-ethoxy-4-(((8-methyl-4-oxochroman-7-yl)oxy)(pyridin-4-yl)methyl)benzamide]	950	2700	990	–	–
Cc1c(O[C@@H](c2ccncc2)c2ccc(C(N)=O)cc2OCC(C)C)ccc2c1OCCC2=O (single isomer, unassigned) [Example 85b, (*S)-3-isobutoxy-4-(((8-methyl-4-oxochroman-7-yl)oxy)(pyridin-4-yl)methyl)benzamide]	1100	3900	470	–	–
CC[C@H]1CC(=O)c2ccc(O[C@H](c3ccncc3)c3ccc(C(N)=O)cc3)cc2O1 (single isomer, unassigned) [Example 41b, 4-((*S)—(((*S)-2-ethyl-4-oxochroman-7-yl)oxy)(pyridin-4-yl)methyl)benzamide]	1100	1500	> 15000	–	–
COc1cc(O[C@@H](c2ccncc2)c2ccc(C(N)=O)cc2)cc2c1C(=O)CCO2 (single isomer, unassigned) [Example 77a, (*R)-4-(((5-methoxy-4-oxochroman-7-yl)oxy)(pyridin-4-yl)methyl)benzamide]	1700	9100	> 15000	–	–
Cc1c(O[C@@H](c2ccc(C(N)=O)cc2)c2cccc[n+]2[O-])ccc2c1OCCC2=O (single isomer, unassigned) [Example 65b, (*S)-2-((4-carbamoylphenyl)((8-methyl-4-oxochroman-7-yl)oxy)methyl)pyridine 1-oxide]	28000	–	–	2000	15000
C[C@@H]1COc2cc(O[C@H](c3ccncc3)c3ccc(C(N)=O)cc3)ccc2C1=O (single isomer, unassigned) [Example 44a, 4-((*S)—(((*R)-3-Methyl-4-oxochroman-7-yl)oxy)(pyridin-4-yl)methyl)benzamide]	1600	1600	> 15000	–	–
O=C1CCOc2cc(O[C@@H](c3ccncc3)c3cccc(F)c3)ccc21 (single isomer, unassigned) [Example 2b, (*S)-7-((3-Fluorophenyl)(pyridin-4-yl)methoxy)chroman-4-one]	1800	3900	> 15000	–	–
NC(=O)c1ccc([C@@H](Oc2ccc3c(c2)OCCC3=O)c2ccncc2C(F)(F)F)cc1 (single isomer, unassigned) [Example 19a, (*R)-4-(((4-oxochroman-7-yl)oxy)(3-(trifluoromethyl)pyridin-4-yl)methyl)benzamide]	820	3600	1800	–	–
Cc1c(O[C@@H](c2ccc(F)cc2)c2ccc(C(N)=O)cc2)ccc2c1OCCC2=O (single isomer, unassigned) [Example 66a, (*R)-4-((4-Fluorophenyl)((8-methyl-4-oxochroman-7-yl)oxy)methyl)benzamide]	2700	7800	4700	–	–
O=C1CCOc2cc(OC(c3ccncc3)c3cccc(F)c3)ccc21 (racemic) [Example 2, (R,S)-7-((3-Fluorophenyl)(pyridin-4-yl)methoxy)chroman-4-one]	1000	2800	> 15000	–	–
C[C@@H]1CC(=O)c2ccc(O[C@@H](c3ccncc3)c3ccc(C(N)=O)cc3)cc2O1 (single isomer, unassigned) [Example 39b, 4-((*R)—(((*R)-2-Methyl-4-oxochroman-7-yl)oxy)(pyridin-4-yl)methyl)benzamide]	850	600	9900	–	–
NC(=O)c1ccc([C@@H](Oc2ccc3c(c2)O[C@@H](c2ccccc2)CC3=O)c2ccncc2)cc1 (single isomer, unassigned) [Example 43a, 4-((*R)—(((*R)-4-oxo-2-phenylchroman-7-yl)oxy)(pyridin-4-yl)methyl)benzamide]	3600	740	4500	–	–
NC(=O)c1ccc([C@@H](Oc2ccc3c(c2Br)OCCC3=O)c2ccncc2)cc1 (single isomer, unassigned) [Example 102a, (*R)-4-(((8-bromo-4-oxochroman-7-yl)oxy)(pyridin-4-yl)methyl)benzamide]	78000	99	15000	–	–
NC(=O)c1ccc([C@H](Oc2ccc3c(c2F)OCCC3=O)c2ccncc2)cc1 (single isomer, unassigned) [Example 50b, (*S)-4-(((8-Fluoro-4-oxochroman-7-yl)oxy)(pyridin-4-yl)methyl)benzamide]	1900	2500	> 15000	–	–
NC(=O)c1ccc([C@@H](Oc2cc(F)c3c(c2)OCCC3=O)c2ccncc2)cc1 (single isomer, unassigned) [Example 51a, (*R)-4-(((5-Fluoro-4-oxochroman-7-yl)oxy)(pyridin-4-yl)methyl)benzamide]	3600	250	15000	–	–
NC(=O)c1ccc([C@H](Oc2ccc3c(c2)OCCC3=O)c2ccccc2)cc1 (single isomer, unassigned) [Example 29a, (*R)-4-(((4-oxochroman-7-yl)oxy)(phenyl)methyl)benzamide]	1100	2300	> 15000	–	–
Cc1c(O[C@@H](c2ccncc2)c2ccc(C(N)=O)cc2)ccc2c1OCCC2=O (single isomer, unassigned) [Example 48b, (*S)-4-(((8-methyl-4-oxochroman-7-yl)oxy)(pyridin-4-yl)methyl)benzamide]	690	–	–	1100	> 15000
